From patent US20250332176A1, “TREATMENT FOR FIBROSIS AND INHIBITION OF FIBROSIS” (GALMED RESEARCH AND DEVELOPMENT LTD, priority 2022, published 2025)
Values joined by “and” are separate entries in the source; they are usually repeats but may differ in a detail not shown here. Equal values may be shown once. “Also recorded” adds a separate entry of the source. Read-outs that look alike come from different tables or passages of the source.

Experiments:
[1] = system: LX-2 human hepatic stellate cells; experiment: Inhibition of collagen synthesis in stellate cells (COL1A1, PPARγ expression, collagen production); assay type: cell-based
Experimental: LX2 cells (150.000 cells per well) were plated in DMEM media containing antibiotics, glutamine and bovine fetal serum. After 24 hours incubation, media was changed to 0% serum and incubated for an additional period of 16 hours. Then, Aramchol™ (10 mM) was added and 24 hours later RNA was extracted with Trizol.

[2] = Phase 1 single dose plasma exposure in healthy volunteers; assay type: in vivo, human; conditions: for AUC: human, plasma, oral, AUC=AUCinf
Experimental: (§1) Table 1 summarizes the reported plasma exposure from three studies-single dose Phase I in healthy volunteers (30-900 mg, AUC=AUCinf); Phase II ARAMCHOL™ 003 repeat dose study (AUC on D84 from 100 & 300 mg QD), Phase IIb Cmin on D84 (400 and 600 mg QD).
Biovailability relative to 30 […] has been calculated as (AUC/Dose)/(AUC/30 mg) and is plotted for this group in FIG. 11.

[3] = Phase 2b steady state trough (Cmin) plasma concentration in patients; assay type: in vivo, human; conditions: for AUC/Dose / Relative bioavailability (AUC/Dose normalized to 30 mg HV data) / concentration at 84 day / AUC: patients; for AUC/Dose / Relative bioavailability (AUC/Dose normalized to 30 mg HV data) / concentration at 84 day: D84; for concentration at 84 day: read-out: SS Cmin; for AUC: estimated from observed Cmin on D84*24 h
Source text: Blood sample for Aramchol™ trough level will be collected (pre-dose) from patients in Israel at baseline (visit 2) week 4 (visit 4), week 12 (visit 6), week 24 (visit 7), week 40 (visit 9), end of treatment (visit 10) and follow up (visit 11). At selected sites in Mexico, USA and Hong Kong one blood sample will be collected (pre-dose) on visit 4 (up to 10 subjects per country) to test for trough Aramchol™ blood level differences between populations (e.g., African American, Asian, Hispanic).
as §1
The steady state (day 84) Cmin in patients at 400 mg and 600 mg has been measured. […] Again, this may reflect inter-subject variability or a difference in the excipients used in the tablets.

[4] = system: LX-2, a human hepatic stellate cell line; experiment: Mechanistic study in hepatic stellate cells (qPCR, Western, RNAseq, GSEA); assay type: cell-based; conditions: Aramchol 10 μM
Experimental: (§2) Serum-starved LX2 cells were treated with Aramchol™ (10 μM) for 24 or 48 hours. Fibrogenic gene expression and SCD-1 protein expression were measured by qPCR and Western, respectively. RNAseq was performed at 24 and 48 h in duplicate. Differential gene expression was assessed with DSeq2, while gene set enrichment analysis (GSEA) and gene ontology (GO) analyses assessed functionality of gene expression changes. Primary hepatocytes from C57BL/6 mice were harvested by perfusion and treated with Aramchol™ ([…]) for 48 hours in culture. PPAR γ mRNA expression was measured by qPCR.

[5] = system: Primary hepatocytes from C57BL/6 mice; experiment: PPARγ mRNA expression in primary hepatocytes (qPCR); assay type: cell-based; conditions: Aramchol 10 μM, 48 hours
Experimental: as §2

With CCCCCCCCCCCCCCCCCCCC(=O)N[C@H]1CC[C@@]2(C)[C@@H](C1)C[C@@H](O)[C@@H]1[C@@H]2C[C@H](O)[C@]2(C)[C@@H]([C@H](C)CCC(=O)O)CC[C@@H]12 [Aramchol™, 3β-arachidylamido-7α, 12α-dihydroxy-5β-cholan-24-oic acid] the COL1A1 expression ([1]; Aramchol 10 mM, 24 hours, RNA) was “significantly reduced”, the PPARγ expression ([1]; Aramchol 10 mM, 24 hours, RNA) was “up-regulation” and the collagen production ([1]; relative to a DMSO control) was “significantly down regulates”. For the same compound, the “exposure (AUC) of single 900 mg dose higher than single 300 mg dose” value [2] was 1.35 fold, the “decrease in AUC/Dose across the dose range” value ([2]; 30-900 mg) was “four-fold” and the AUC ([2]; single dose 30 mg) was 11900 ng·h/mL. For the same compound, the AUC ([2]; single dose 100 mg) was 25700 ng·h/mL, the AUC ([2]; single dose 300 mg) was 64300 ng·h/mL and the AUC ([2]; single dose 900 mg) was 86900 ng·h/mL. For the same compound, the AUC/Dose ([2]; single dose 30 mg) was 397 ng/mL · h/(mg/kg), the “Relative bioavailability (AUC/Dose normalized to 30 mg HV data)” value ([2]; single dose 30 mg) was 1 and the AUC/Dose ([2]; single dose 100 mg) was 257 ng/mL · h/(mg/kg). The “Relative bioavailability (AUC/Dose normalized to 30 mg HV data)” value ([2]; single dose 100 mg) was 0.65, the AUC/Dose ([2]; single dose 300 mg) was 214 ng/mL · h/(mg/kg) and the “Relative bioavailability (AUC/Dose normalized to 30 mg HV data)” value ([2]; single dose 300 mg) was 0.53 and 0.54. For the same compound, the AUC/Dose ([2]; single dose 900 mg) was 97 ng/mL · h/(mg/kg), the “Relative bioavailability (AUC/Dose normalized to 30 mg HV data)” value ([2]; single dose 900 mg) was 0.24 and the AUC/Dose ([3]; 400 mg QD) was 172 ng/mL · h/(mg/kg). The “Relative bioavailability (AUC/Dose normalized to 30 mg HV data)” value ([3]; 400 mg QD) was 0.43, the AUC/Dose ([3]; 600 mg QD) was 144 ng/mL · h/(mg/kg) and the “Relative bioavailability (AUC/Dose normalized to 30 mg HV data)” value ([3]; 600 mg QD) was 0.36. The half-life ([3]; human, plasma, oral) was > 24 h, the concentration at 84 day ([3]; human, plasma, oral, 400 mg QD) was 2860 ng/mL and the AUC ([3]; human, plasma, oral, 400 mg QD) was 68600 ng·h/mL. For the same compound, the concentration at 84 day ([3]; human, plasma, oral, 600 mg QD) was 3610 ng/mL, the AUC ([3]; human, plasma, oral, 600 mg QD) was 86700 ng·h/mL and the “cholesterol biosynthesis (Gene Set Enrichment Analysis)” value ([4]; 24 or 48 hours) was “downregulates”. The “collagen formation (Gene Set Enrichment Analysis)” value ([4]; 24 or 48 hours) was “downregulates”, the “PPARγ mRNA (RT-PCR)” value ([4]; 24 or 48 hours, serum-starved) was “upregulates” and the “SCD-1 mRNA (RT-PCR)” value ([4]; 24 or 48 hours, serum-starved) was “downregulates”. The “fibrogenic genes (RT-PCR)” value ([4]; 24 or 48 hours, serum-starved) was “downregulates”, the “SCD-1 protein (Western Blot, densitometry)” value ([4]; 24 or 48 hrs) was “downregulates” and the “PPARγ mRNA (RNASeq)” value ([4]; 48 hrs) was “upregulation”. The “cholesterol efflux regulatory protein ABCA1 (RNASeq)” value ([4]; 48 hrs) was “upregulated”, the “fibrogenic genes and SCD-1 mRNA (RNASeq)” value ([4]; 48 hrs) was “downregulation; also recorded: downregulates” and the “PPARγ mRNA expression (qPCR)” value [5] was “does not affect”.
